Columns and labels:
[1] = Hygroscopicity (moisture uptake) of the supplied SMA drug substance; format: physicochemical
Description: (§1) Sodium meta-arsenite (“SMA”) was obtained from Sigma Aldrich Fine Chemicals. […]

[2] = Solubility of the supplied SMA drug substance; format: physicochemical
Description: as §1

O=[As][O-].[Na+] [SMA, sodium meta-arsenite]
Hygroscopicity (moisture uptake) ([1]; at 75% RH): ~40% at 75% RH | Hygroscopicity (moisture uptake) ([1]; at 80% RH): >80% at 80% RH | Hygroscopicity (moisture uptake) ([1]; at 90% RH): >130% at 90% RH | Solubility [2]: Approx. 950 mg/mL

Reference: patent US12257347B2, “Pharmaceutical composition comprising meta arsenite and method of manufacture” (KOMIPHARM INT[…] PTY LTD, priority 2018, dated 2025)
